Data from ChEMBL document CHEMBL1201862, “PubChem BioAssay data set” (2004).
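Exposure lasted 48 hours, with cells grown in 96-well plates and compounds tested at five concentrations. At the GI50, growth is halved.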 Activity calls are given as the source filed them. No stated cut-off is given here; in the data, active = GI50 up to about 1.1 µM and inactive = higher.

Columns and labels:
Experiment in all cases: NCI anticancer screen, dose series, 48 h
786-0 = test system: 786-0
ACHN = test system: ACHN
CCRF-CEM = test system: CCRF-CEM
HCC 2998 = test system: HCC 2998
HL-60 = test system: HL-60
IGROV-1 = test system: IGROV-1
KM12 = test system: KM12
NCI-H226 = test system: NCI-H226
NCI-H460 = test system: NCI-H460
OVCAR-3 = test system: OVCAR-3
SF-539 = test system: SF-539
SK-MEL-28 = test system: SK-MEL-28
SK-MEL-5 = test system: SK-MEL-5
SNB-19 = test system: SNB-19
SNB-75 = test system: SNB-75
MDA-MB-435 = test system: MDA-MB-435
OVCAR-5 = test system: OVCAR-5
PC-3 = test system: PC-3
MDA-N = test system: MDA-N
UACC-62 = test system: UACC-62

Row | Compound | GI50 (786-0) | GI50 (ACHN) | GI50 (CCRF-CEM) | GI50 (HCC 2998) | GI50 (HL-60) | GI50 (IGROV-1) | GI50 (KM12) | GI50 (NCI-H226) | GI50 (NCI-H460) | GI50 (OVCAR-3) | GI50 (SF-539) | GI50 (SK-MEL-28) | GI50 (SK-MEL-5) | GI50 (SNB-19) | GI50 (SNB-75) | GI50 (MDA-MB-435) | GI50 (OVCAR-5) | GI50 (PC-3) | GI50 (MDA-N) | GI50 (UACC-62)
1 | COC1OC(CO)C(O)C(NC(=O)N(C)N=O)C1O (centres undefined) | > 100 µM (inactive) | > 100 µM (inactive) | > 100 µM (inactive) | > 100 µM (inactive) | > 100 µM (inactive) | > 100 µM (inactive) | > 100 µM (inactive) | > 100 µM (inactive) | > 100 µM (inactive) | > 100 µM (inactive) | > 100 µM (inactive) | > 100 µM (inactive) | > 100 µM (inactive) | > 100 µM (inactive) | > 100 µM (inactive) | – | – | – | – | –
2 | COC(=O)c1c(O)ccc2c1c1c(n2C)C(=O)c2ccccc2C1=O | 15.3 µM (inactive) | 9.29 µM (inactive) | 6.37 µM (inactive) | 11.3 µM (inactive) | > 100 µM (inactive) | 4 µM (inactive) | 57.7 µM (inactive) | 9.02 µM (inactive) | 8 µM (inactive) | 35.3 µM (inactive) | 17.6 µM (inactive) | 32.7 µM (inactive) | 30.9 µM (inactive) | 16.3 µM (inactive) | 2.48 µM (inactive) | 33 µM (inactive) | 85.3 µM (inactive) | 23.3 µM (inactive) | – | –
3 | C[C@H](c1ccccc1)N1C(=O)[C@@H](O)[C@H]1[C@H](CO)OCc1ccccc1 | > 100 µM (inactive) | > 100 µM (inactive) | > 100 µM (inactive) | – | – | > 100 µM (inactive) | > 100 µM (inactive) | > 100 µM (inactive) | – | > 100 µM (inactive) | – | > 100 µM (inactive) | > 100 µM (inactive) | > 100 µM (inactive) | > 100 µM (inactive) | > 100 µM (inactive) | > 100 µM (inactive) | > 100 µM (inactive) | > 100 µM (inactive) | > 100 µM (inactive)
4 | COc1ccc(C(=O)C(C(=O)C(=O)Nc2nc3ccc(OC)cc3s2)c2ccc(OC)cc2)cc1 (centres undefined) | > 100 µM (inactive) | > 100 µM (inactive) | > 100 µM (inactive) | > 100 µM (inactive) | 75.2 µM (inactive) | > 100 µM (inactive) | > 100 µM (inactive) | > 100 µM (inactive) | > 100 µM (inactive) | > 100 µM (inactive) | > 100 µM (inactive) | > 100 µM (inactive) | 55.2 µM (inactive) | > 100 µM (inactive) | 26.5 µM (inactive) | – | > 100 µM (inactive) | – | – | > 100 µM (inactive)
5 | c1cncc(-c2ncc3cccnc3n2)c1 | > 100 µM (inactive) | > 100 µM (inactive) | > 100 µM (inactive) | > 100 µM (inactive) | > 100 µM (inactive) | > 100 µM (inactive) | > 100 µM (inactive) | > 100 µM (inactive) | > 100 µM (inactive) | > 100 µM (inactive) | > 100 µM (inactive) | – | > 100 µM (inactive) | > 100 µM (inactive) | > 100 µM (inactive) | – | > 100 µM (inactive) | > 100 µM (inactive) | > 100 µM (inactive) | > 100 µM (inactive)
6 | O=C1/C(=C/c2ccccc2)NC(=S)N1CN1CCCCC1 | > 100 µM (inactive) | > 100 µM (inactive) | > 100 µM (inactive) | – | – | > 100 µM (inactive) | > 100 µM (inactive) | > 100 µM (inactive) | – | > 100 µM (inactive) | – | > 100 µM (inactive) | > 100 µM (inactive) | > 100 µM (inactive) | > 100 µM (inactive) | > 100 µM (inactive) | > 100 µM (inactive) | > 100 µM (inactive) | > 100 µM (inactive) | > 100 µM (inactive)
7 | CCC(C(=O)C(=O)C(CC)P1(=O)OC(C)(C)CN1C(C)(C)C)P1(=O)OC(C)(C)CN1C(C)(C)C (centres undefined) | > 100 µM (inactive) | > 100 µM (inactive) | > 100 µM (inactive) | > 100 µM (inactive) | > 100 µM (inactive) | > 100 µM (inactive) | > 100 µM (inactive) | > 100 µM (inactive) | > 100 µM (inactive) | > 100 µM (inactive) | > 100 µM (inactive) | > 100 µM (inactive) | > 100 µM (inactive) | > 100 µM (inactive) | 49.7 µM (inactive) | > 100 µM (inactive) | – | > 100 µM (inactive) | – | > 100 µM (inactive)
8 | COc1ccc(N2C(=O)[C@@H](N=[N+]=[N-])[C@@H]2[C@H]2COC(C)(C)O2)cc1 | > 100 µM (inactive) | > 100 µM (inactive) | > 100 µM (inactive) | > 100 µM (inactive) | > 100 µM (inactive) | > 100 µM (inactive) | > 100 µM (inactive) | > 100 µM (inactive) | > 100 µM (inactive) | > 100 µM (inactive) | > 100 µM (inactive) | > 100 µM (inactive) | > 100 µM (inactive) | > 100 µM (inactive) | > 100 µM (inactive) | – | > 100 µM (inactive) | – | – | 75 µM (inactive)
9 | COc1ccc2nc3ccc(OC)cc3c(SCc3ccccc3)c2c1 | 76 µM (inactive) | 97.9 µM (inactive) | > 52.7 µM (inactive) | 38.8 µM (inactive) | > 100 µM (inactive) | > 63.1 µM (inactive) | > 100 µM (inactive) | > 100 µM (inactive) | > 89.1 µM (inactive) | > 100 µM (inactive) | > 89.3 µM (inactive) | > 85.7 µM (inactive) | > 100 µM (inactive) | > 100 µM (inactive) | > 88.7 µM (inactive) | > 76.9 µM (inactive) | > 100 µM (inactive) | > 100 µM (inactive) | – | > 100 µM (inactive)
10 | c1ccc2cc3[s+]snc3cc2c1 | > 100 µM (inactive) | > 100 µM (inactive) | 89.7 µM (inactive) | > 100 µM (inactive) | > 100 µM (inactive) | > 100 µM (inactive) | > 100 µM (inactive) | > 100 µM (inactive) | > 100 µM (inactive) | > 100 µM (inactive) | > 100 µM (inactive) | > 100 µM (inactive) | 97.9 µM (inactive) | > 100 µM (inactive) | > 100 µM (inactive) | – | > 100 µM (inactive) | – | – | > 100 µM (inactive)
11 | N=C(N)NCCN1CCCCCc2ccccc21 | > 10 µM (inactive) | > 10 µM (inactive) | > 10 µM (inactive) | > 10 µM (inactive) | > 10 µM (inactive) | > 10 µM (inactive) | > 10 µM (inactive) | > 10 µM (inactive) | > 10 µM (inactive) | > 10 µM (inactive) | > 10 µM (inactive) | > 10 µM (inactive) | > 10 µM (inactive) | > 10 µM (inactive) | 3.48 µM (inactive) | > 10 µM (inactive) | > 10 µM (inactive) | 7.26 µM (inactive) | – | 9.25 µM (inactive)
12 | Brc1cccc(Nc2nc(-c3cccs3)nc3ccc(Br)cc23)c1 | 28.2 µM (inactive) | 27.7 µM (inactive) | 1.51 µM (inactive) | 20.2 µM (inactive) | 1.28 µM (inactive) | 26.7 µM (inactive) | 18 µM (inactive) | 31.4 µM (inactive) | 21.7 µM (inactive) | 16.1 µM (inactive) | 31.8 µM (inactive) | 25.2 µM (inactive) | 14 µM (inactive) | 31.1 µM (inactive) | 41.2 µM (inactive) | 16.6 µM (inactive) | 25.2 µM (inactive) | 31.9 µM (inactive) | – | 17.8 µM (inactive)
13 | CCOC(=O)[C@@H]1ON2O[C@H](OC3CCCCC3c3ccccc3)C[C@H]3OC(=O)[C@@H]1C32 (some centres undefined) | > 100 µM (inactive) | > 100 µM (inactive) | 0.209 µM (active) | 64.6 µM (inactive) | – | > 100 µM (inactive) | 80 µM (inactive) | > 100 µM (inactive) | 39.8 µM (inactive) | > 100 µM (inactive) | > 100 µM (inactive) | – | > 100 µM (inactive) | – | > 100 µM (inactive) | > 100 µM (inactive) | > 100 µM (inactive) | – | > 100 µM (inactive) | > 100 µM (inactive)
14 | CCCCOCc1cc(CN2CCN(C)CC2)c(O)c2ncccc12 | 14.6 µM (inactive) | 6.24 µM (inactive) | 3.07 µM (inactive) | 24.3 µM (inactive) | 2.13 µM (inactive) | 29.3 µM (inactive) | 21.1 µM (inactive) | 20.8 µM (inactive) | 7.46 µM (inactive) | 7.59 µM (inactive) | 19.4 µM (inactive) | 31.4 µM (inactive) | 4.02 µM (inactive) | 30.8 µM (inactive) | 52.7 µM (inactive) | – | 24.4 µM (inactive) | – | – | 13.9 µM (inactive)
15 | OCCc1cnco1 | > 100 µM (inactive) | – | > 100 µM (inactive) | > 100 µM (inactive) | > 100 µM (inactive) | > 100 µM (inactive) | > 100 µM (inactive) | > 100 µM (inactive) | > 100 µM (inactive) | > 100 µM (inactive) | > 100 µM (inactive) | > 100 µM (inactive) | > 100 µM (inactive) | > 100 µM (inactive) | > 100 µM (inactive) | – | – | – | – | > 100 µM (inactive)
16 | [N-]=[N+]=NC(CBr)c1cn([C@H]2C[C@H](O)[C@@H](CO)O2)c(=O)[nH]c1=O (some centres undefined) | > 100 µM (inactive) | > 100 µM (inactive) | > 100 µM (inactive) | > 100 µM (inactive) | > 100 µM (inactive) | > 100 µM (inactive) | > 100 µM (inactive) | > 100 µM (inactive) | > 100 µM (inactive) | > 100 µM (inactive) | > 100 µM (inactive) | > 100 µM (inactive) | > 100 µM (inactive) | > 100 µM (inactive) | > 100 µM (inactive) | – | > 100 µM (inactive) | – | – | > 100 µM (inactive)
